Consider one compound from PMC8005375, “Massiliamide, a cyclic tetrapeptide with potent tyrosinase inhibitory properties from the Gram-negative bacterium Massilia albidiflava DSM 17472^T” (The Journal of Antibiotics, 2020).

The target in series [1] is tyrosinase (Agaricus bisporus, UniProt C7FF04). The series can be described thus: Tyrosinase inhibition assay (kit MAK257). Format: biochemical. The conditions noted are these: comparison of IC50 values with arbutin and kojic acid. On the procedure: In brief, 20 µL massiliamide (1) with various concentrations (0.05–5 µM) was added into 50 µL tyrosinase enzyme solutions that contained 48 µL MAK257A buffer and 2 µL of tyrosinase. The mixture was then incubated for 10 min at 25°C, followed by the addition of 30 µL substrate solution, containing 23 µL MAK257A buffer, 2 µL tyrosinase substrate, and 5 µL tyrosinase enhancer. The final reaction mixture was then homogenized by shaking and immediately monitored at 510 nm using a Tecan Infinite 200 Pro microplate reader, applying the kinetic mode for 30-60 min. […] Each measurement was conducted in three independent replications.
Chain of tyrosinase (C7FF04 whole entry): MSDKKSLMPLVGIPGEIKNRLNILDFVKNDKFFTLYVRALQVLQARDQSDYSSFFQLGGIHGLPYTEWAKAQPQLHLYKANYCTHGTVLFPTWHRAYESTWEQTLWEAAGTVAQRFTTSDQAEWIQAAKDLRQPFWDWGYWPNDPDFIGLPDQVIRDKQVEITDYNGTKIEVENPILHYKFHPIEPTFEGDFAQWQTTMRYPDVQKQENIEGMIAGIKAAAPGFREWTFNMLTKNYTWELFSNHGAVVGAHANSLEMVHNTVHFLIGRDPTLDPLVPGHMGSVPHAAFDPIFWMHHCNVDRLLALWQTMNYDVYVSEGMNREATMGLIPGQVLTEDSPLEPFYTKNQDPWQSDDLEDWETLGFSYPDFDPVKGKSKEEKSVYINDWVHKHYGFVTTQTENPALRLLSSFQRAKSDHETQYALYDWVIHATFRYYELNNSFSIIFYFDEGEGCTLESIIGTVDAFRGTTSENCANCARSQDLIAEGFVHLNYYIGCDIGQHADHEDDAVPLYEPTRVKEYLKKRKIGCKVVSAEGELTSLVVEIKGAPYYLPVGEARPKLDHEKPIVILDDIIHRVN

For series [2], the system named is HeLa cell line. The conditions noted are these: HeLa cell line at 64 µg ml^−1; resazurin assay. The procedure:
The cytotoxicity test against the HeLa human cervical carcinoma cell line was performed in RPMI cell culture medium supplemented with 10% fetal bovine serum using the 7-hydroxy-3H-phenoxazin-3-one-10-oxide (resazurin) assay. A twofold serial dilution of the test compounds was prepared in duplicates in a microtiter plate and seeded with trypsinized HeLa cells to a final cell concentration of 1 × 10^4 cells per well. After 24 h incubation at 37°C, 5 % CO2, 95% relative humidity, resazurin was added at a final concentration of 200 µM, and cells were again incubated overnight. Cell viability was assessed by determining the reduction of resazurin to the fluorescent resorufin. Fluorescence was measured in a TECAN M200 reader at an excitation wavelength of 560 nm and an emission wavelength of 600 nm in relation to the untreated control.

Series [3] deals with S. aureus ATCC 2921. The conditions noted are these: cation-adjusted Mueller-Hinton medium, twofold serial dilution (CLSI), 5 × 10^5 CFU per mL, overnight, 37°C.
Description: The minimal inhibitory concentration (MIC) was determined in a cation-adjusted Mueller-Hinton medium that contains casein, beef extract and starch by using a twofold serial dilution method according to the standards and guidelines of the Clinical and Laboratory Standards Institute (CLSI) [10]. In brief, a twofold serial dilution of the test compound was prepared in microtiter plates and seeded using a final inoculum of bacteria of 5 × 10^5 colony-forming units per mL.
Series [4] concerns B. subtilis 168. The conditions noted are these: cation-adjusted Mueller-Hinton medium, twofold serial dilution (CLSI), 5 × 10^5 CFU per mL, overnight, 37°C. The procedure: (§1) The minimal inhibitory concentration (MIC) was determined in a cation-adjusted Mueller-Hinton medium that contains casein, beef extract and starch by using a twofold serial dilution method according to the standards and guidelines of the Clinical and Laboratory Standards Institute (CLSI). In brief, a twofold serial dilution of the test compound was prepared in microtiter plates and seeded using a final inoculum of bacteria of 5 × 10^5 colony-forming units per mL. […] The strain panel included representative species of nosocomial pathogens, which are known as “ESKAPE” bacteria. Specifically, the following strains were used: Enterococcus faecium BM 4147–1, Staphylococcus aureus ATCC 29213, Klebsiella pneumoniae ATCC 12657, Acinetobacter baumannii 09987, Pseudomonas aeruginosa ATCC 27853 and Enterobacter aerogenes ATCC 13048. Bacillus subtilis 168 and Escherichia coli ATCC 25922 were used as further reference strains. The ATCC strains were provided by the American Type Culture Collection. A. baumannii 09987 was obtained from the University of Bonn, Germany.

Series [5] has as its system K. pneumonia ATCC 12657. The conditions noted are these: cation-adjusted Mueller-Hinton medium, twofold serial dilution (CLSI), 5 × 10^5 CFU per mL, overnight, 37°C. On the procedure:
as §1

Series [6] has as its system E. coli ATCC 25922. The conditions noted are these: cation-adjusted Mueller-Hinton medium, twofold serial dilution (CLSI), 5 × 10^5 CFU per mL, overnight, 37°C. On the procedure: as §1
Series [7] deals with E. aerogenes ATCC 13048. The conditions noted are these: cation-adjusted Mueller-Hinton medium, twofold serial dilution (CLSI), 5 × 10^5 CFU per mL, overnight, 37°C. The procedure: as §1
Series [8] concerns A. baumannii 09987. The conditions noted are these: cation-adjusted Mueller-Hinton medium, twofold serial dilution (CLSI), 5 × 10^5 CFU per mL, overnight, 37°C. On the procedure:
as §1

For series [9], the system named is E. faecium BM 4147-1. The conditions noted are these: cation-adjusted Mueller-Hinton medium, twofold serial dilution (CLSI), 5 × 10^5 CFU per mL, overnight, 37°C. The procedure:
as §1

Series [10] relates to P. aeruginosa ATCC 27853. The conditions noted are these: cation-adjusted Mueller-Hinton medium, twofold serial dilution (CLSI), 5 × 10^5 CFU per mL, overnight, 37°C. The procedure: as §1
For series [11], the system named is strain panel of "ESKAPE" bacteria, Bacillus subtilis 168 and Escherichia coli ATCC 25922. The conditions noted are these: broth microdilution, up to the highest concentration tested (64 µg ml^−1). The procedure:
as §1

Square brackets hold non-standard residues; d marks the D form. Peptide text beside a SMILES is read from it.

Consider `CC(C)[C@H]1NC(=O)[C@@H]2CCCN2C(=O)[C@@H](Cc2ccc(O)cc2)NC(=O)[C@@H]2CCCN2C1=O` [Massiliamide (1)] (cyclo(P[dY]P[dV])), for which the “Tyrosinase inhibition compared with positive controls (in words)” value in series [1] is “surpassed readily the activities of the positive controls arbutin and kojic acid”. The “Cytotoxicity (in words)” value in series [2] was “no cytotoxicity”. For the same compound, the minimum inhibitory concentration (MIC) in series [3], in series [4], in series [5], in [6], in series [7] and in series [8] was above 64 µg/mL in each case. Also, the MIC in [9] and in [10] was above 64 µg/mL throughout. Besides, the “Antimicrobial activity (in words)” value in series [11] was “inactive up to the highest concentration tested”.
